Test results reported in US8501800B2, “Controlled-release ophthalmic vehicles” (Insite Vision Incorporated, priority 2009, dated 2013).

Experiment: Release of fluorometholone in the rabbit eye, measured in aqueous humor
Type: in vivo
Details: measured by fluorometholone contained in the aqueous humor
Protocol: The viscous gels that result upon administration of the aqueous suspensions of this invention to the eye have residence times in the eye ranging from about 2 to about 12 hours, e.g., from about 3 to about 6 hours. The active ingredients contained in these ophthalmically acceptable vehicles are released from the gels at rates that depend on such factors as the active ingredient itself and its physical form, the extent of drug loading and the pH of the system, as well as on any drug delivery adjuvants, such as ion exchange resins compatible with the ocular surface, which can also be present.

- Release rates in the rabbit eye: in excess of four hours
Structure (SMILES): CC(=O)[C@@]1(O)CC[C@H]2[C@@H]3C[C@H](C)C4=CC(=O)C=C[C@]4(C)[C@@]3(F)[C@@H](O)C[C@@]21C [fluorometholone]
